The values below come from patent US10961203B2, “Crystalline forms of 3-Z-[1-(4-(N-((4-methyl-piperazin-1-yl)-methylcarbonyl)-N-methyl-amino)-phenylamino)-1-phenyl-methylene]-6-methoxycarbonyl-2-indolinone” (Allgenesis Biotherapeutics Inc., priority 2017, dated 2021).

The data set in a line: Stability test of Crystalline Form F of Nintedanib (XRPD after storage). It is filed as physicochemical. Conditions: polyethylene bag in desiccator, no humidity control, room temperature, three months; FIG. 15 before, FIG. 23 after. On the procedure: In each example, XRPD experiment was conducted using a Bruker D8 advance diffractometer, with a Cu Ka (wavelength 1.54056 Å) filled tube (40 kV, 40 mA) as the X-ray source having a wide angle goniometer, a 0.6 mm divergent slit, a 2.5° primary Sola slit, a 2.5° secondary Sola slit, an 8 mm anti-scattering slit, a 0.1 mm detector slit, and Lynx Eye detector, at room temperature. In a 2θ continuous scanning mode, the data acquisition was completed with a scanning speed of 2.4°/min and a scanning step of 0.02° in the range of 3° to 40°.
Crystalline Form F of Nintedanib obtained with the preparation method in Example 5 was placed in a polyethylene plastic bag, the plastic bag was then placed in a desiccator with no humidity control at room temperature for three months (from April 12 to July 12).

For the compound `COC(=O)c1ccc2c(c1)NC(=O)/C2=C(\Nc1ccc(N(C)C(=O)CN2CCN(C)CC2)cc1)c1ccccc1` [Crystalline Form F, 3-Z-[1-(4-(N-((4-methyl-piperazin-1-yl)-methylcarbonyl)-N-methyl-amino)-phenylamino)-1-phenyl-methylene]-6-methoxycarbonyl-2-indolinone], the “crystalline form by XRPD after storage (stability of Crystalline Form F)” value is listed as “all the measurements showed a result of Crystalline Form F”.
